# According to PubChem BioAssay AID1745844 (Carcinogenic Potency Database (CPDB), 2022):
# Activity calls are given as the source filed them. No rule for the calls is given here.
# Test system: rodent lifetime carcinogenesis bioassay, tumor incidence TD50
# Test: chronic cancer bioassays in animals – CPDB, compiled studies (AID 1745844)
compound,measurement,setting,value
COc1ccccc1[N+](=O)[O-],TD50,"mouse, strain B6C3F1, females, in feed, site: all sites, lesion: malignant lymphoma, histiocytic type + malignant lymphoma, mixed type + malignant lymphoma, lymphocytic type + malignant lymph, dosed 103 weeks, study length 104 weeks",153 mg/kg/day
same,TD50,"mouse, strain B6C3F1, females, in feed, site: any site (literature study), lesion: several types, types named in the paper, dosed 103 weeks, study length 104 weeks",350 mg/kg/day
same,TD50,"mouse, strain B6C3F1, females, in feed, site: liver, lesion: hepatocellular adenoma + hepatoblastoma + hepatocellular carcinoma, dosed 103 weeks, study length 104 weeks",194 mg/kg/day
same,TD50,"mouse, strain B6C3F1, females, in feed, site: liver, lesion: hepatocellular adenoma + hepatocellular carcinoma, dosed 103 weeks, study length 104 weeks",194 mg/kg/day
same,TD50,"mouse, strain B6C3F1, females, in feed, site: liver, lesion: hepatocellular adenoma, dosed 103 weeks, study length 104 weeks",179 mg/kg/day
same,TD50,"mouse, strain B6C3F1, males, in feed, site: any site (literature study), lesion: several types, types named in the paper, dosed 103 weeks, study length 104 weeks",43500 mg/kg/day
same,TD50,"mouse, strain B6C3F1, males, in feed, site: liver, lesion: hepatoblastoma + hepatocellular carcinoma, dosed 103 weeks, study length 104 weeks",391 mg/kg/day
same,TD50,"mouse, strain B6C3F1, males, in feed, site: liver, lesion: hepatoblastoma, dosed 103 weeks, study length 104 weeks",428 mg/kg/day
same,TD50,"mouse, strain B6C3F1, males, in feed, site: liver, lesion: hepatocellular adenoma + hepatoblastoma + hepatocellular carcinoma, dosed 103 weeks, study length 104 weeks",198 mg/kg/day
same,TD50,"mouse, strain B6C3F1, males, in feed, site: liver, lesion: hepatocellular adenoma + hepatocellular carcinoma, dosed 103 weeks, study length 104 weeks",208 mg/kg/day
same,TD50,"mouse, strain B6C3F1, males, in feed, site: liver, lesion: hepatocellular adenoma, dosed 103 weeks, study length 104 weeks",177 mg/kg/day
same,TD50,"rat, strain Fischer 344, females, in feed, site: all sites, lesion: mononuclear-cell leukemia, dosed 103 weeks, study length 104 weeks",152 mg/kg/day
same,TD50,"rat, strain Fischer 344, females, in feed, site: any site (literature study), lesion: several types, types named in the paper, dosed 27 weeks, study length 104 weeks",10.7 mg/kg/day
same,TD50,"rat, strain Fischer 344, females, in feed, site: any site (literature study), lesion: several types, types named in the paper, dosed 103 weeks, study length 104 weeks",336 mg/kg/day
same,TD50,"rat, strain Fischer 344, females, in feed, site: colon, lesion: adenomatous polyp, dosed 27 weeks, study length 104 weeks",60.9 mg/kg/day
same,TD50,"rat, strain Fischer 344, females, in feed, site: colon, lesion: carcinoma, dosed 27 weeks, study length 104 weeks",1300 mg/kg/day
same,TD50,"rat, strain Fischer 344, females, in feed, site: forestomach, lesion: squamous-cell carcinoma + squamous-cell papilloma, dosed 103 weeks, study length 104 weeks",1270 mg/kg/day
same,TD50,"rat, strain Fischer 344, females, in feed, site: forestomach, lesion: squamous-cell papilloma, dosed 103 weeks, study length 104 weeks",3270 mg/kg/day
same,TD50,"rat, strain Fischer 344, females, in feed, site: kidney + large intestine + urinary bladder, lesion: transitional-cell carcinoma + transitional-cell papilloma + adenomatous polyp + carcinoma + sarcoma + squamous-cell carcinoma + squa, dosed 27 weeks, study length 104 weeks",12.9 mg/kg/day
same,TD50,"rat, strain Fischer 344, females, in feed, site: kidney, lesion: transitional-cell carcinoma + transitional-cell papilloma, dosed 27 weeks, study length 104 weeks",1240 mg/kg/day
same,TD50,"rat, strain Fischer 344, females, in feed, site: kidney, lesion: transitional-cell carcinoma, dosed 27 weeks, study length 104 weeks",3550 mg/kg/day
same,TD50,"rat, strain Fischer 344, females, in feed, site: kidney, lesion: transitional-cell papilloma, dosed 27 weeks, study length 104 weeks",1890 mg/kg/day
same,TD50,"rat, strain Fischer 344, females, in feed, site: large intestine, lesion: adenomatous polyp + carcinoma, dosed 27 weeks, study length 104 weeks",55 mg/kg/day
same,TD50,"rat, strain Fischer 344, females, in feed, site: large intestine, lesion: adenomatous polyp, dosed 27 weeks, study length 104 weeks",55 mg/kg/day
same,TD50,"rat, strain Fischer 344, females, in feed, site: large intestine, lesion: carcinoma, dosed 27 weeks, study length 104 weeks",1300 mg/kg/day
same,TD50,"rat, strain Fischer 344, females, in feed, site: liver, lesion: hepatocellular adenoma + hepatoblastoma + hepatocellular carcinoma, dosed 103 weeks, study length 104 weeks",1010 mg/kg/day
same,TD50,"rat, strain Fischer 344, females, in feed, site: liver, lesion: hepatocellular adenoma, dosed 103 weeks, study length 104 weeks",1010 mg/kg/day
same,TD50,"rat, strain Fischer 344, females, in feed, site: lung, lesion: alveolar/bronchiolar adenoma, dosed 103 weeks, study length 104 weeks",666 mg/kg/day
same,TD50,"rat, strain Fischer 344, females, in feed, site: rectum, lesion: adenomatous polyp, dosed 27 weeks, study length 104 weeks",560 mg/kg/day
same,TD50,"rat, strain Fischer 344, females, in feed, site: urinary bladder, lesion: sarcoma, dosed 27 weeks, study length 104 weeks",192 mg/kg/day
same,TD50,"rat, strain Fischer 344, females, in feed, site: urinary bladder, lesion: squamous-cell carcinoma + squamous-cell papilloma, dosed 27 weeks, study length 104 weeks",588 mg/kg/day
same,TD50,"rat, strain Fischer 344, females, in feed, site: urinary bladder, lesion: squamous-cell carcinoma, dosed 27 weeks, study length 104 weeks",2700 mg/kg/day
same,TD50,"rat, strain Fischer 344, females, in feed, site: urinary bladder, lesion: squamous-cell papilloma, dosed 27 weeks, study length 104 weeks",751 mg/kg/day
same,TD50,"rat, strain Fischer 344, females, in feed, site: urinary bladder, lesion: transitional-cell carcinoma + transitional-cell papilloma, dosed 27 weeks, study length 104 weeks",13 mg/kg/day
same,TD50,"rat, strain Fischer 344, females, in feed, site: urinary bladder, lesion: transitional-cell carcinoma, dosed 27 weeks, study length 104 weeks",13.2 mg/kg/day
same,TD50,"rat, strain Fischer 344, females, in feed, site: urinary bladder, lesion: transitional-cell papilloma, dosed 27 weeks, study length 104 weeks",543 mg/kg/day
same,TD50,"rat, strain Fischer 344, males, in feed, site: adrenal medulla, lesion: pheochromocytoma benign, bilateral + pheochromocytoma, benign, dosed 103 weeks, study length 104 weeks",89.6 mg/kg/day
same,TD50,"rat, strain Fischer 344, males, in feed, site: adrenal medulla, lesion: pheochromocytoma benign, bilateral + pheochromocytoma, malignant + pheochromocytoma, benign, dosed 103 weeks, study length 104 weeks",109 mg/kg/day
same,TD50,"rat, strain Fischer 344, males, in feed, site: all sites, lesion: mononuclear-cell leukemia, dosed 103 weeks, study length 104 weeks",25.9 mg/kg/day
same,TD50,"rat, strain Fischer 344, males, in feed, site: any site (literature study), lesion: several types, types named in the paper, dosed 27 weeks, study length 104 weeks",3.97 mg/kg/day
same,TD50,"rat, strain Fischer 344, males, in feed, site: any site (literature study), lesion: several types, types named in the paper, dosed 103 weeks, study length 104 weeks",21.4 mg/kg/day
same,TD50,"rat, strain Fischer 344, males, in feed, site: cecum, lesion: adenomatous polyp, dosed 27 weeks, study length 104 weeks",21.3 mg/kg/day
same,TD50,"rat, strain Fischer 344, males, in feed, site: colon, lesion: adenomatous polyp, dosed 27 weeks, study length 104 weeks",17.2 mg/kg/day
same,TD50,"rat, strain Fischer 344, males, in feed, site: colon, lesion: carcinoma, dosed 27 weeks, study length 104 weeks",573 mg/kg/day
same,TD50,"rat, strain Fischer 344, males, in feed, site: forestomach, lesion: squamous-cell carcinoma + squamous-cell papilloma, dosed 103 weeks, study length 104 weeks",304 mg/kg/day
same,TD50,"rat, strain Fischer 344, males, in feed, site: forestomach, lesion: squamous-cell carcinoma, dosed 103 weeks, study length 104 weeks",715 mg/kg/day
same,TD50,"rat, strain Fischer 344, males, in feed, site: forestomach, lesion: squamous-cell papilloma, dosed 103 weeks, study length 104 weeks",543 mg/kg/day
same,TD50,"rat, strain Fischer 344, males, in feed, site: kidney + large intestine + urinary bladder, lesion: transitional-cell carcinoma + transitional-cell papilloma + adenomatous polyp + carcinoma + sarcoma + squamous-cell carcinoma + squa, dosed 27 weeks, study length 104 weeks",7.47 mg/kg/day
same,TD50,"rat, strain Fischer 344, males, in feed, site: kidney, lesion: transitional-cell carcinoma + transitional-cell papilloma, dosed 27 weeks, study length 104 weeks",83.6 mg/kg/day
same,TD50,"rat, strain Fischer 344, males, in feed, site: kidney, lesion: transitional-cell carcinoma, dosed 27 weeks, study length 104 weeks",90.9 mg/kg/day
same,TD50,"rat, strain Fischer 344, males, in feed, site: kidney, lesion: transitional-cell papilloma, dosed 27 weeks, study length 104 weeks",1040 mg/kg/day
same,TD50,"rat, strain Fischer 344, males, in feed, site: kidney, lesion: tubule adenoma + tubule carcinoma, dosed 103 weeks, study length 104 weeks",251 mg/kg/day
same,TD50,"rat, strain Fischer 344, males, in feed, site: kidney, lesion: tubule adenoma, dosed 103 weeks, study length 104 weeks",435 mg/kg/day
same,TD50,"rat, strain Fischer 344, males, in feed, site: kidney, lesion: tubule carcinoma, dosed 103 weeks, study length 104 weeks",612 mg/kg/day
same,TD50,"rat, strain Fischer 344, males, in feed, site: large intestine, lesion: adenomatous polyp + carcinoma, dosed 27 weeks, study length 104 weeks",8.54 mg/kg/day
same,TD50,"rat, strain Fischer 344, males, in feed, site: large intestine, lesion: adenomatous polyp, dosed 27 weeks, study length 104 weeks",8.58 mg/kg/day
same,TD50,"rat, strain Fischer 344, males, in feed, site: large intestine, lesion: carcinoma, dosed 27 weeks, study length 104 weeks",573 mg/kg/day
same,TD50,"rat, strain Fischer 344, males, in feed, site: liver, lesion: hepatocellular adenoma + hepatoblastoma + hepatocellular carcinoma, dosed 103 weeks, study length 104 weeks",330 mg/kg/day
same,TD50,"rat, strain Fischer 344, males, in feed, site: preputial gland, lesion: carcinoma + carcinoma, bilateral, dosed 103 weeks, study length 104 weeks",195 mg/kg/day
same,TD50,"rat, strain Fischer 344, males, in feed, site: rectum, lesion: adenomatous polyp, dosed 27 weeks, study length 104 weeks",51.8 mg/kg/day
same,TD50,"rat, strain Fischer 344, males, in feed, site: testis, lesion: interstitial-cell adenoma, bilateral + interstitial-cell adenoma, dosed 103 weeks, study length 104 weeks",21.3 mg/kg/day
same,TD50,"rat, strain Fischer 344, males, in feed, site: urinary bladder, lesion: sarcoma, dosed 27 weeks, study length 104 weeks",292 mg/kg/day
same,TD50,"rat, strain Fischer 344, males, in feed, site: urinary bladder, lesion: squamous-cell carcinoma + squamous-cell papilloma, dosed 27 weeks, study length 104 weeks",273 mg/kg/day
same,TD50,"rat, strain Fischer 344, males, in feed, site: urinary bladder, lesion: squamous-cell carcinoma, dosed 27 weeks, study length 104 weeks",422 mg/kg/day
same,TD50,"rat, strain Fischer 344, males, in feed, site: urinary bladder, lesion: squamous-cell papilloma, dosed 27 weeks, study length 104 weeks",482 mg/kg/day
same,TD50,"rat, strain Fischer 344, males, in feed, site: urinary bladder, lesion: transitional-cell carcinoma + transitional-cell papilloma, dosed 27 weeks, study length 104 weeks",7.48 mg/kg/day
same,TD50,"rat, strain Fischer 344, males, in feed, site: urinary bladder, lesion: transitional-cell carcinoma, dosed 27 weeks, study length 104 weeks",8.28 mg/kg/day
same,TD50,"rat, strain Fischer 344, males, in feed, site: urinary bladder, lesion: transitional-cell papilloma, dosed 27 weeks, study length 104 weeks",75.6 mg/kg/day
CC(=O)Nc1ccc2c(c1)Cc1cc(NC(C)=O)ccc1-2,TD50,"monkey, strain Cynomolgus [Macaca fascicularis], both sexes, in feed, site: breast, lesion: carcinoma, dosed 258 weeks, study length 1513 weeks",307 mg/kg/day
same,TD50,"monkey, strain Cynomolgus [Macaca fascicularis], both sexes, in feed, site: lung, lesion: alveolar/bronchiolar carcinoma, dosed 258 weeks, study length 1513 weeks",25.6 mg/kg/day
Cc1cccc2ccccc12,TD50,"mouse, strain B6C3F1, females, in feed, site: liver, lesion: hepatocellular adenoma, dosed 81 weeks, study length 81 weeks",979 mg/kg/day
same,TD50,"mouse, strain B6C3F1, females, in feed, site: liver, lesion: hepatocellular carcinoma, dosed 81 weeks, study length 81 weeks",6040 mg/kg/day
same,TD50,"mouse, strain B6C3F1, males, in feed, site: any site (literature study), lesion: one or several types, types not named, dosed 81 weeks, study length 81 weeks",2260 mg/kg/day
same,TD50,"mouse, strain B6C3F1, males, in feed, site: lung, lesion: alveolar/bronchiolar adenoma, dosed 81 weeks, study length 81 weeks",244 mg/kg/day
same,TD50,"mouse, strain B6C3F1, males, in feed, site: lung, lesion: alveolar/bronchiolar carcinoma, dosed 81 weeks, study length 81 weeks",1830 mg/kg/day
same,TD50,"mouse, strain B6C3F1, males, in feed, site: lung, lesion: several types, types named in the paper, dosed 81 weeks, study length 81 weeks",201 mg/kg/day
CC(=O)OC(OC(C)=O)c1ccc([N+](=O)[O-])o1,carcinogen call,"rat, strain Holtzman albino (Sprague-Dawley derived), females, in feed, site: mammary tissue, wider than the gland, lesion: one or several types, types not named, dosed 36 weeks, study length 54 weeks",negative (inactive)
same,TD50,"rat, strain Holtzman albino (Sprague-Dawley derived), females, in feed, site: mammary tissue, wider than the gland, lesion: one or several types, types not named, dosed 44 weeks, study length 60 weeks",105 mg/kg/day (inactive)
N,carcinogen call,"mouse, strain C3H (MTV+), females, in drinking water, site: mammary gland, lesion: adenocarcinoma, dosed 104 weeks, study length 104 weeks",negative (inactive)
same,carcinogen call,"mouse, strain Swiss, females, in drinking water, site: lung, lesion: several types, types named in the paper, dosed 119 weeks, study length 121 weeks",negative (inactive)
same,TD50,"mouse, strain Swiss, males, in drinking water, site: liver, lesion: several types, types named in the paper, dosed 120 weeks, study length 124 weeks",26700 mg/kg/day
same,TD50,"mouse, strain Swiss, males, in drinking water, site: lung, lesion: adenocarcinoma, dosed 120 weeks, study length 124 weeks",7330 mg/kg/day (inactive)
same,TD50,"mouse, strain Swiss, males, in drinking water, site: lung, lesion: several types, types named in the paper, dosed 120 weeks, study length 124 weeks",15300 mg/kg/day (inactive)
